Where “and” joins values, the source holds several entries; their conditions need not be identical. Equal values may be shown once. Entries after “also recorded” stand apart in the source; their conditions may differ. Read-outs that look alike come from different tables or passages of the source. One block for each molecule: values may come before it.
Tests used:
[1] = biological target: RmTIM (TIM from R. microplus) (Rhipicephalus microplus, UniProt A8B3A8); assay: biochemical
Rabbit TIM (RbTIM) = Rabbit TIM (RbTIM) (Oryctolagus cuniculus, UniProt P00939); assay: Rabbit TIM inhibition (selectivity); assay type: biochemical
Sequence of Rabbit TIM (RbTIM) (P00939 2-249 limits assumed): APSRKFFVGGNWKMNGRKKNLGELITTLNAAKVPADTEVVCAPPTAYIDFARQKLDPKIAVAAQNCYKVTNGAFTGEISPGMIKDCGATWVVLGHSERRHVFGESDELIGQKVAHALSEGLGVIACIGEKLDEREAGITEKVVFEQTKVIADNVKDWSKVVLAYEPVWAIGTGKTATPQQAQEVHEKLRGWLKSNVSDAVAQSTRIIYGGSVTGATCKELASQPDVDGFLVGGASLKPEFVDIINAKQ

BME26 embryonic cells [2] = assay: MTT viability assay on BME26 embryonic cells; assay type: cell-based, Rhipicephalus microplus; conditions: for IC50 / viability at 100 µM: Rhipicephalus microplus, 24 h, BME26, MTT; for IC50: read-out: IC50 in BME26 cells (In vitro anti-R. microplus); for viability at 100 µM: read-out: cell viability at 100 µM
[3] = biological target: T1, Homo sapiens TIM (HsTIM, HmTIM [sic] in Table 1) (Homo sapiens, UniProt P60174); assay: Human TIM inhibition (selectivity); assay type: biochemical
T1 construct: made in house; host or cells: E. coli
T1 sequence (P60174 whole entry): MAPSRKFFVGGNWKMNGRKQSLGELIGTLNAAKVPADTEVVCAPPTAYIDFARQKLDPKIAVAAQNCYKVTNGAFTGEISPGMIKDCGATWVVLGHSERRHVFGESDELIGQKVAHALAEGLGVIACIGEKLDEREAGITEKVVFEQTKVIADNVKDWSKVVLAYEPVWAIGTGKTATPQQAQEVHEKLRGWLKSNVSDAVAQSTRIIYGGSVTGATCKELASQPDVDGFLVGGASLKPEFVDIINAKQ

mice (strain B6D2F1) = conditions: male, B6D2F1, mouse, in vivo
[4] = tested on: mammalian TIMs (rabbit and human); assay: Mammalian TIM inhibition (rabbit and human, summarised); assay type: biochemical; conditions: 100 µM
[5] = set-up: method as in PMID 22803666; conditions: previous work; cited from earlier work
[6] = tested on: Trypanosoma cruzi TIM (TcTIM); conditions: previously obtained; cited from earlier work
mice = conditions: cited from earlier work
BME26 embryonic cells [7] = tested on: BME26 embryonic cells; set-up: method as in PMID 24956999, PMID 22036897; conditions: widely used acaricide, comparison; cited from earlier work

Sequence of RmTIM (TIM from R. microplus) (A8B3A8 1-249): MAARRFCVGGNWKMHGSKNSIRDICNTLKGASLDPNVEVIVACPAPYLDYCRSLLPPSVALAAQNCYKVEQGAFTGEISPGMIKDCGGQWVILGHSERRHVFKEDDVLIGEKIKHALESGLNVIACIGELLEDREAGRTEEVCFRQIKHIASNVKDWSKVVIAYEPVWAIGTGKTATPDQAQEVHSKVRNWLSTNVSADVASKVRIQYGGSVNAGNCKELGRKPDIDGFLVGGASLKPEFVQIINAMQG

Molecule: CC1(C)[N+]([O-])=c2ccc(/C=C/c3ccccc3)cc2=[N+]1[O-] [Compound 39]
IC50 ([1]; read-out: IC50 (µM) RmTIM): 50 to 100 µM

Molecule: O=C1C(=Cc2ccc([N+](=O)[O-])cc2)C(=O)N(Cc2ccccc2)S(=O)(=O)N1Cc1ccccc1 [Compound 50]
inhibition at 100 µM (Rabbit TIM (RbTIM)): 0%
IC50 (BME26 embryonic cells [2]): 71 ± 8 µM
viability at 100 µM (BME26 embryonic cells [2]; 100 µM): 42%
IC50 ([1]; read-out: IC50 (µM) RmTIM): ~50 µM and 50 µM
inhibition at 100 µM [3]: 0%
Toxicology: LD50 (mice (strain B6D2F1)): 3 mmol/kg body weight in mice
Mammalian Triosephosphate isomerase inhibition [4]: did not affect

Molecule: O=C1C(=Cc2ccc([N+](=O)[O-])o2)C(=O)N(Cc2ccccc2)S(=O)(=O)N1Cc1ccccc1 [Compound 52]
IC50 ([1]; read-out: IC50 (µM) RmTIM): 50 to 100 µM

Molecule: O=S(=O)(NCCc1ccccc1)NCCc1ccccc1 [Compound 62]
IC50 ([1]; IC50 (µM) RmTIM): 50 to 100 µM

Molecule: C=CCn1c(-c2ccc(OC)cc2)cs/c1=N/N=C/c1ccc([N+](=O)[O-])s1 [Compound 70]
IC50 ([1]; read-out: IC50 (µM) RmTIM): ~100 µM

Molecule: Clc1ccc(-c2csc(N/N=C/C=C/c3ccco3)n2)cc1 [Compound 81]
IC50 ([1]; read-out: IC50 (µM) RmTIM): 50 to 100 µM

Molecule: O=C(N/N=C/C=C/c1ccc([N+](=O)[O-])o1)Nc1ccc2ccccc2c1 [Compound 98]
inhibition at 100 µM (Rabbit TIM (RbTIM)): 21%
IC50 (BME26 embryonic cells [2]): 67 ± 4 µM
viability at 100 µM (BME26 embryonic cells [2]; 100 µM): 40%
IC50 ([1]; read-out: IC50 (µM) RmTIM): ~50 µM and 50 µM
inhibition at 100 µM [3]: 14%
Toxicology: LD50 (mice (strain B6D2F1)): 3 mmol/kg body weight in mice
Mammalian Triosephosphate isomerase inhibition [4]: did not affect

Molecule: O=[N+]([O-])c1ccc(/C=C/C=N/NC(=S)Nc2ccccc2)o1 [Compound 99]
IC50 ([1]; read-out: IC50 (µM) RmTIM): ~100 µM

Molecule: N#Cc1nn(-c2c(Cl)cc(C(F)(F)F)cc2Cl)c(N)c1[S+]([O-])C(F)(F)F (centres unmarked) [fipronil]
acute oral LD50 (mice): 91 mg/kg

Molecule: ivermectin
IC50 (BME26 embryonic cells [7]): 3000 nM

Further lines, with some results ahead:

IC50 ([1]; read-out: IC50 (µM) RmTIM): ~100 µM
Molecule: O=C(N/N=C/c1c(-c2ccccc2)no[n+]1[O-])c1cnn(-c2ccccc2)c1 [Compound 134]

IC50 ([1]; read-out: IC50 (µM) RmTIM): ~100 µM
Molecule: Cc1c(C=O)no[n+]1[O-] [Compound 136]

IC50 ([1]; read-out: IC50 (µM) RmTIM): ~100 µM
Molecule: Cc1c(CNc2ccc3ccccc3c2)no[n+]1[O-] [Compound 146]

inhibition at 100 µM (Rabbit TIM (RbTIM)): 0%
IC50 ([1]; read-out: IC50 (µM) RmTIM): 25 ± 3 µM
inhibition at 100 µM [3]: 28%
% Inhibition at 100 µM HmTIM ([3]; 100 µM): slight inhibitory activity
Molecule: Cc1ccc(-c2nsc(=O)[nH]2)cc1 [Compound 161]
penetration of biological membranes [5]: cannot penetrate biological membranes
effect on BME26 cells (BME26 embryonic cells [2]; MTT, 100 µM): did not have any effect; also recorded: no activity
viability at 100 µM (BME26 embryonic cells [2]; 100 µM): 100%
IC50 [6]: 4 µM

IC50 ([1]; read-out: IC50 (µM) RmTIM): ~100 µM
Molecule: C=CCNC(=S)N/N=C/c1ccc2c(c1)[n+]([O-])c(C)c(C)[n+]2[O-] [Compound 179]

IC50 ([1]; read-out: IC50 (µM) RmTIM): 50 to 100 µM
Molecule: Cc1ccc(/C=C/C=N/N2CCN(C/C=C/c3ccccc3)CC2)o1 [Compound 222]
